Assay results from paper PMC9879991, “Biomolecular condensates formed by designer minimalistic peptides” (Nature Communications, 2023).
No end group written: not given here.

Experiments:
[1] = solution NMR
Procedure: pKa values were determined by following the chemical shifts of Trp1-Hα and Trp1-Hβ at pH values of 6.0, 7.0, 7.5, 8.0 and
9.0. The 10 obtained chemical shifts were fitted to the Henderson-Hasselbach equation with the assumption that peak
position is a weighted average of the two end-point chemical shifts; optimization parameters were the two end-point shifts
(representing fully ionized and fully deionized forms of the N-terminal amino group of the peptide. Errors were determined
by Monte Carlo simulations with a measurement error of 0.01 ppm for all chemical shifts.

[2] = Turbidity analysis of peptide LLPS at 20 mM at varying pH; assay type: physicochemical; details: mean, Figure S8, for NMR experiment
Procedure: 150 μl of 20 mM peptide solutions were prepared in 20 mM Tris buffer. The pH was adjusted to the desired value of 6, 7, 8, 9, 10, and 11 then the turbidity of 35 μl was measured in triplicates at λ = 500 nm using a BioTek H1 synergy plate reader (purchased from Lumitron, Israel).
Supplementary Figure 7. CD analysis of peptides at 1 mM with and without NaCl.
Supplementary Figure 8. a. Turbidity analysis of peptide LLPS at a concentration of 20 mM at varying pH values. WGR-10 contains a Pro/Gln substitution. Each point represents an average of n=3, data are presented as mean values +/- SD b. Optical microscopy images of peptides at 20 mM at pH
10. Scale bar=50 μm. Source data are provided as a Source Data file. […]

[3] = Encapsulation efficiency of peptide droplets, rhodamine B payload; assay type: physicochemical; details: C initial 10 µM, 20 mM peptide; for %EE: 20 mM Tris + 0.2 M NaCl pH 8, 15,000 g 10 min, supernatant absorbance 555 nm
Excerpt: Next, we studied how peptide composition affects the encapsulation efficiency of the droplets by using GFP, rhodamine B, and fluorescein as fluorescent payload model systems (Fig. 4). We analyzed the encapsulation efficiency of the fluorescent payloads by using both confocal microscopy and absorbance measurements of the payloads in the dilute vs. the condensed phase (Fig. 4a–c). […] WGR-1 has the highest EE of fluorescein. In addition to π-π interactions, WGR-1 might form hydrogen bonding with the hydroxyl groups or electrostatic interactions with the deprotonated carboxylic acid of the dye.
Stock solutions (1 mM) of the fluorescein and rhodamine B dye molecules were prepared in 20 mM Tris buffer. Coacervate solutions of 20 mM peptide were prepared in 20 mM Tris + 0.2 M NaCl at pH 8. From these, a volume of 148.5 µl was mixed with 1.5 µl of dye solution in a 1.5 ml Eppendorf tube and pipetted. After 10 min the samples were centrifuged at 15,000 × g for 10 min. A volume of 120 μl from the supernatant was collected and vortexed and then the absorbance of 35 μl triplicates was measured (at λ = 490 nm for fluorescein and λ = 555 nm for RhB) in a 384 well black plate by Biotek H1 synergy plate reader (purchased from Lumitron, Israel). For GFP, a 7.5 µl of 20 mM Tris buffer to a 7.5 μl GFP aliquot from the purchased stock solution. The 15 µl of GFP solution was added to 135 µl of peptide solution and was mixed in a 1.5 ml Eppendorf tube and pipetted. The concentration of GFP at the supernatant was measured via fluorescence. All experiments were performed in triplicate. The concentration of the supernatant solutions determinate by calibration curves. Imaging was made to 30 μl of uncentrifuged samples. Efficiency of encapsulation (%EE) was calculated using Eq. 2. 2 %EE=CT−Csup/CT

[4] = Turbidity assay of WGR-1 (10 mM) in citrate, Tris and ammonium bicarbonate buffer; assay type: physicochemical; details: 10 mM peptide, mean of n=3
Procedure: Supplementary Figure 2. Turbidity assay of WGR-1 (10 mM) in citrate buffer (pH 6-7), Tris buffer (pH 6-10) and ammonium bicarbonate buffer (ABC, pH 9-10). Turbidity was monitored at λ=500 nm.
Source data are provided as a Source Data file. […]
iii) Performed solution NMR analysis to determine the pKa of the terminal amine for each […]
The results of each analysis are detailed below: i) To analyze the effect of the ions in each of the buffers on peptide LLPS, we performed turbidity assay of 10 mM WGR-1 using citrate buffer at pH 6-7, tris buffer at pH 6-10 and ammonium carbonate buffer at pH 9-10, with 200 mM NaCl. For citrate buffer, we measured sample turbidity at pH 6, the optimal value for this buffer, and in addition at pH 7, to compare the effect of citrate and tris on LLPS. Similarly, we analyzed the turbidity in ammonium bicarbonate buffer at pH 9 in additional to pH 10, to compare the effect of tris and ammonium bicarbonate on LLPS.
Higher turbidity is observed at pH 7 with citrate compared to tris and with ammonium bicarbonate at pH 9-10 compared to tris. […]
bicarbonate facilitate LLPS, presumably by reducing the electrostatic repulsion between […]
citrate and -1/-2 for ammonium bicarbonate). […]
In light of these findings and the obvious ion effect, we decided to present the new phase diagrams in tris in main text Figure 2b and the phase diagrams with the different buffers in Supplementary Fig. 1. The text was revised accordingly (see revised manuscript, revised text is highlighted in red). In addition, the turbidity assay of the different buffers was added to […]
Supplementary Fig. 2. […]

For WGRGRGRGWPGVGY [WGR-1], the “pKa of the N-terminal amine group” value ([1]; Trp1-Hα and Trp1-Hβ shifts at pH 6.0, 7.0, 7.5, 8.0, 9.0, Henderson-Hasselbach fit, error by Monte Carlo) was 7.50 ± 0.01, the “pKa of the Tyr14 phenolic ring” value ([1]; pH-induced chemical shift changes) was ~ 10 and the “Turbidity as asorbance at 500 nm” value ([2]; pH 6) was 0.0085. The “Turbidity as asorbance at 500 nm” value ([2]; pH 7) was 0.019, the “Turbidity as asorbance at 500 nm” value ([2]; pH 8) was 0.01867 and the “Turbidity as asorbance at 500 nm” value ([2]; pH 9) was 0.03567. The “Turbidity as asorbance at 500 nm” value ([2]; pH 10) was 1.253, the “Turbidity as asorbance at 500 nm” value ([2]; pH 11) was 1.988 and the differential NaCl-induced change, largest (residue P10) was 5.5 Hz. The “%EE” value ([3]; replicate 1, given as fraction) was 0.9106, the “%EE” value ([3]; replicate 2, given as fraction) was 0.9029 and the “%EE” value ([3]; replicate 3, given as fraction) was 0.8168. The “Encapsulation efficiency (EE)” value ([3]; 20 mM Tris + 0.2 M NaCl pH 8, supernatant absorbance 555 nm, mean of n=3, in percent) was 87.6774%, the “Turbidity as asorbance at 500 nm” value ([4]; AC (ammonium bicarbonate) buffer, pH 9, 200 mM NaCl) was 2.028 and the “Turbidity as asorbance at 500 nm” value ([4]; AC (ammonium bicarbonate) buffer, pH 10, 200 mM NaCl) was 2.068. The “Turbidity as asorbance at 500 nm” value ([4]; Tris buffer, pH 6, 200 mM NaCl) was 0.007333, the “Turbidity as asorbance at 500 nm” value ([4]; Tris buffer, pH 7, 200 mM NaCl) was 0.01967 and the “Turbidity as asorbance at 500 nm” value ([4]; Tris buffer, pH 8, 200 mM NaCl) was 0.2073. The “Turbidity as asorbance at 500 nm” value ([4]; Tris buffer, pH 9, 200 mM NaCl) was 1.416, the “Turbidity as asorbance at 500 nm” value ([4]; Tris buffer, pH 10, 200 mM NaCl) was 1.71 and the “Turbidity as asorbance at 500 nm” value ([4]; citrate buffer, pH 6, 200 mM NaCl) was 0.02367. The “Turbidity as asorbance at 500 nm” value ([4]; citrate buffer, pH 7, 200 mM NaCl) was 0.974.
